Experimental findings from patent publication US20080132549A1, “Sulphur-Linked Imidazone Compounds for the Treatment of Hiv/Aids” (Pfizer Inc., priority 2004, published 2008) are described below.

pIC50: −log10 of the molar value.

In the first data set the target is T1, purified recombinant HIV-1 reverse transcriptase (Human immunodeficiency virus type 1 group M subtype B, UniProt P04585).
T1 construct: purified recombinant HIV-1 reverse transcriptase (RT, EC, 2.7.7.49); made in house; host or cells: Escherichia coli
The data set can be described thus: Inhibition of HIV-1 reverse transcriptase enzyme ([3H]-Flashplate enzyme assay, 384-well). It is filed as biochemical. Conditions: recombinant HIV-1 RT expressed in Escherichia Coli; 5% final DMSO. An excerpt:
The activity of the compounds of the invention as reverse transcriptase inhibitors may be measured using the following assay.
Inhibition of HIV-1 Reverse Transcriptase Enzyme
The reverse transcriptase activity of the compounds of the invention may be assayed as follows. Using the purified recombinant HIV-1 reverse transcriptase (RT, EC, 2.7.7.49) obtained by expression in Escherichia Coli, a 384-well plate assay system was established for assaying a large number of samples using the [3H]-Flashplate enzyme assay system (NEN-SMP 410A) following the manufacturer's recommendations. The compounds were dissolved in 100% DMSO and diluted with the appropriate buffer to a 5% final DMSO concentration. The inhibitory activity was expressed in percent inhibition relative to the DMSO control.
As for `CCc1nc(CCOC)n(CC)c1Sc1cc(C#N)cc(C#N)c1` [Example 23, 5-[3,5-Diethyl-2-(2-methoxy-ethyl)-3H-imidazol-4-ylsulfanyl]-isophthalonitrile], the negative logarithm of the IC50 (pIC50) (usually −log10 of the IC50, conventionally taken in molar units) was 6.83.

As to `Cn1c(COC(N)=O)nc(C2CC2)c1Sc1cc(C#N)cc(C#N)c1` [Example 14, Carbamic acid 4-cyclopropyl-5-(3,5-dicyano-phenylsulfanyl)-1-methyl-1H-imidazol-2-ylmethyl ester], the pIC50 is 6.45.

As for `CCn1c(CO)nc(C(F)(F)F)c1Sc1cc(C#N)cc(C#N)c1` [Example 9], the negative logarithm of the IC50 (pIC50) is 5.94.

`CCc1nc(CCO)n(CC)c1Sc1cc(C#N)cc(C#N)c1` [Example 1, 5-[3,5-Diethyl-2-(2-hydroxyethyl)-3H-imidazol-4-ylsulfanyl]-isophthalonitrile]: the negative logarithm of the IC50 (pIC50) was 7.42.

As to `Cc1nc(C2CC2)c(Sc2cc(C#N)cc(C#N)c2)n1Cc1ccncc1` [Example 40], the pIC50 was 6.87.

Take `CCc1nc(CCOC(N)=O)n(C)c1Sc1cc(C#N)cc(C#N)c1` [Example 4, Carbamic acid 2-[5-(3,5-dicyano-phenylsulfanyl)-4-ethyl-1-methyl-1H-imidazol-2-yl]-ethyl ester]: the negative logarithm of the IC50 (pIC50) is 6.03.

`Cc1nc(C(F)(F)F)c(Sc2cc(C#N)cc(C#N)c2)n1C` [Example 38]: the negative logarithm of the IC50 (pIC50) is 5.97.

System in another data set: not given
Experiment: not given
Details: not given
For `CCn1c(CO)nc(C(F)(F)F)c1Sc1cc(C#N)cc(C#N)c1` [Example 9], the melting point – broadly, the temperature, or range, at which the solid turns liquid – lay in the range of 184 to 186 °C.

With `CCn1c(COC)nc(C(C)C)c1Sc1cc(C#N)cc(C#N)c1`, the melting point lay within 156 to 158 °C.

Regarding `CCc1nc(CO)n(CC)c1Sc1cc(C#N)cc(C#N)c1`, the melting point is 141 to 143 °C.

Consider `CCn1c(COC(N)=O)nc(C(C)C)c1Sc1cc(C#N)cc(C#N)c1`, for which the melting point fell in the range of 174 to 175 °C.

Regarding `CCn1c(COC(N)=O)nc(C2CC2)c1Sc1cc(C#N)cc(C#N)c1`, the melting point fell in the range of 170 to 172 °C.

In turn, `CCn1c(CCO)nc(C2CC2)c1Sc1cc(C#N)cc(C#N)c1` returned a melting point of 122 to 124 °C.

Consider `CCc1nc(CN)n(CC)c1Sc1cc(C#N)cc(C#N)c1`, for which the melting point fell in the range of 133 to 135 °C.

`CCn1c(CO)nc(C(C)C)c1Sc1cc(C#N)cc(C#N)c1` gave a melting point of 167 to 169 °C.
